We go through one molecule from patent publication US20260226101A1, “PEPTIDE WITH ANTI-INFLAMMATORY AND ANTI-MICROBIAL ACTIVITY” (priority 2023, published 2026).

A short description of this data set: in vitro. The conditions noted are these: mouse. It is filed as cell-based, murine. How it is done: Cell viability of synthetic peptides on the growth of RAW264.7 cells was measured using the methyl thiazolyl tetrazolium (MTT) assay after 48 h. Briefly, exponentially growing macrophages RAW264.7 cells were mechanically scraped, plated at a density of 7×10^3 cells in 100 μl were seeded into each well of a 96-well plate then incubated for 12 h at 37° C. under 5% CO2, and then the cells are treated with test peptides: IS 111 ([…]) or dexamethasone ([…]) cells were incubated at 37° C. in the presence of 5% CO2 for 42 h. After incubation, the morphology of cells was examined under a microscope. Following incubation, MTT was added to the cells (20 μL at 5 mg/mL MTT dissolved in 1×PBS) and incubated for 4 hours in the presence of 5% CO2 at 37° C. Formazan crystals were dissolved by the addition of 100 μL of 100% DMSO per well. Plates were then gently swirled for 5 min at room temperature to dissolve the precipitate. Absorbance was monitored at 575 nm using a microplate reader. Maximum cytotoxicity (100%) was determined by cells incubated with 1% Triton X-100; PBS was used as a negative control. Cells without treatment were considered as control. The average absorbance for each sample group was used to evaluate cell viability.
Optical density (O.D.) was calculated as the difference between the absorbance at the reference wavelength and that at the test wavelength. The relative cell viability was determined by the amount of MTT converted to the insoluble formazan salt. The data were expressed as the mean percentage of viable cells when compared with untreated cells (control). The half maximal growth inhibitory concentration (IC50) value was calculated from the line equation of the dose-dependent curve of each compound. The results were compared with the cytotoxic activity of dexamethasone, a known anti-inflammatory drug. […] Percentages of cell viability and LC50 of cells were calculated: Percent cell viability was calculated as (O.D. of drug-treated sample/control O.D.)×100. The data were expressed as percent cell viability compared with control (dimethyl sulfoxide/NS). The experiment was carried out in four samples of each concentration.
The percentages of cell viability and LC50 of cells were calculated by using the formula below.
Where Absorbance control is the DMSO 0.1%-treated cell absorbance, and Absorbance sample is the test sample-treated cell absorbance. LC50 values were derived from dose-response curves, and data were expressed as the mean of three independent experiments. Statistical analyses involved Student's t-test and one-way ANOVA.
The test peptide IS 111 cytotoxic effects on RAW 264.7 mouse […] were determined by MTT assay. […] Cell viability was measured by MTT assay based on the conversion of yellow tetrazolium salt to form a purple formazan product. The viability of the RAW 264.7 cells can be seen on table 21.

The structures appear in SMILES notation.

In general, viability refers to a read-out of living cells in per cent, often relative to untreated cells. For the molecule `C[C@@H]1C[C@H]2[C@@H]3CCC4=CC(=O)C=C[C@]4(C)[C@@]3(F)[C@@H](O)C[C@]2(C)[C@@]1(O)C(=O)CO` [Dexamethasone, dexamethasone, reference compound], the viability at 48 h, 7.8125 µg/mL was determined as 102%; the viability at 48 h, 15.625 µg/mL is 90%; the viability at 48 h, 31.25 µg/mL is 82.8%; the viability at 48 h, 62.5 µg/mL came out at 91.4%. Also, the viability at 48 h, 125 µg/mL came out at 96%; the viability at 48 h, 250 µg/mL turned out to be 90.8%; the viability at 48 h, 500 µg/mL came out at 84.6%.
